Results published in patent US20120245344A1 (NIPPON CHEMIPHAR CO., LTD., priority 2009, published 2012).

Target: T1, human GPR119 (Homo sapiens, UniProt Q8TDV5)
T1 construct: expressed in transfected cells; host or cells: Flp-in T-Rex-293 cells (Invitrogen #R78007), plasmid pcDNA5/FRT/TO, expression induced with tetracycline
T1 sequence (Q8TDV5 1-335): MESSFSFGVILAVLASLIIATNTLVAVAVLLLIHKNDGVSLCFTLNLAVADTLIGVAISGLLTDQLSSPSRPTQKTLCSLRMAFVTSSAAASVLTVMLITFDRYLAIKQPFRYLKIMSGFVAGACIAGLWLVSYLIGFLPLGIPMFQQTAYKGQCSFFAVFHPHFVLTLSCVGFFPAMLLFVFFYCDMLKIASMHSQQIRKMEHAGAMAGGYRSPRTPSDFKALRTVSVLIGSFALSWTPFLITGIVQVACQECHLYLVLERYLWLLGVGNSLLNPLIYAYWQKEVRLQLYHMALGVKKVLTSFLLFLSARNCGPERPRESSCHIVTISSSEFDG
Test: Measurement of intracellular cAMP in stable cell line expressing human GPR119 (GPR119 agonist effect)
Assay type: cell-based
Conditions: for EC50: increase of intracellular cAMP, Flp-in T-Rex-293 cells expressing human GPR119, 37° C. for 30 minutes
Description: The GPR119 agonist effect is studied by measuring the effect of an analyte on increase of intracellular amount of cAMP in human GPR119 introduced cells. The testing method is described below.
Human GPR119 gene (NM 178471) is purchased from ATCC (ATCC No. 10807349), and is amplyfied according to PCR to form BamHI site at 5′ side and Apa I site at 3′ side. The primers are […] (sequence No. 1) and […] (sequence No. 2). The PCR conditions are described below.
The double-stranded DNA is thermally denatured using a DNA polymerase (KOD-Plus-Ver. 2; TOYOBO #KOD-211) at 98° C. for 10 seconds in one cycle. The denatured single-stranded DNA is annealed with the primers at 55° C. for 30 seconds. The DNA is subjected to an extension reaction at 68° C. for 1 minute and 15 seconds. The above-mentioned steps are repeated in 35 cycles. The PCR product is inserted into pcDNA5/FRT/TO (Invitrogen #V6520-20) plasmid. Flp-in T-Rex-293 cells (Invitorogen #R78007) are transfected with the obtained plasmid. The method of transfection is conducted in accordance with the protocol of the product.
(§1) The stable cell line expressing human GPR119 prepared in the above-mentioned method is plated on a 96-well plate at the concentration of 2,500 cells/well using Dulbecco's Modified Eagle Medium (DMEM) containing 10% fetal bovine serum (FBS). Twenty-four hours after plating, tetracyclin (Invitrogen #Q10019) is added at the final concentration of 20 ng/mL to induce hGPR119 gene expression. Twenty-four hours after, the medium is removed, and the cells are stimulated with an assay buffer (0.5 mM IBMX PBS (−)) containing the test compound at 37° C. for 30 minutes. The amount of the intracellular cAMP is measured using a commercially available kit (HitHunter™ cAMP XS+Assay: GE Healthcare #90007503) and a reader (FLUOstar Optima: BMG LABTECH). The test compound is dissolved in 100% DMSO, and added at the final concentration of 1%.
Human GPR119 gene (NM 178471) was purchased from ATCC (ATCC No. 10807349), and is amplyfied according to PCR to form BamHI site at 5′ side and Apa I site at 3′ side. The primers were […] (sequence No. 1) and […] (sequence No. 2). The PCR conditions are described below. The double-stranded DNA was thermally denatured using a DNA polymerase (KOD-Plus-Ver. 2; TOYOBO #KOD-211) at 98° C. for 10 seconds in one cycle. The denatured single-stranded DNA was annealed with the primers at 55° C. for 30 seconds. The DNA was subjected to an extension reaction at 68° C. for 1 minute and 15 seconds. The above-mentioned steps were repeated in 35 cycles. The PCR product was inserted into pcDNA5/FRT/TO (Invitrogen #V6520-20) plasmid. Flp-in T-Rex-293 cells (Invitorogen #R78007) were transfected with the obtained plasmid. The method of transfection was conducted in accordance with the protocol of the product.
as §1, with “method was” for “method is”, “#Q10019) was” for “#Q10019) is”, “medium was” for “medium is”, “cells were” for “cells are”, “cAMP was” for “cAMP is”, “compound was” for “compound is”
The examination was performed by the method similar to Example 87 Pharmacological experiment 1-(1), -(2).

SMILES | EC50 [nM] | GPR119 agonist effect (in words) (statement in words on Tables 10 to 13)
CCc1cnc(N2CCC(c3ccc(Cn4ccc5cc(-n6cnnn6)ccc54)nc3)CC2)nc1 [Example 33, 5-Ethyl-2-[4-[2-[5-(tetrazol-1-yl)indol-1-ylmethyl]pyridin-5-yl]piperidin-1-yl]pyrimidine] | 15.5 | 
CC(C)(C)OC(=O)N1CCC(c2ccc(-c3cc4cc(S(C)(=O)=O)ccc4o3)nc2)CC1 [Example 9, tert-Butyl 4-[2-(5-methanesulfonylbenzofuran-2-yl)pyridin-5-yl]piperidine-1-carboxylate] | 420 | 
CC1CN(C(=O)OC(C)(C)C)CC=C1c1ccc(Cn2ccc3cc(S(C)(=O)=O)ccc32)nc1 (centres unmarked) [Example 43, tert-Butyl 4-[2-(5-methanesulfonylindol-1-ylmethyl)pyridin-5-yl]-3-methyl-3,6-dihydro-2H-pyridine-1-carboxylate] | 58.7 | 
CCc1cnc(N2CCC(c3ccc(Cn4ccc5cc(S(C)(=O)=O)c(F)cc54)nc3)CC2)nc1 [Example 32, 5-Ethyl-2-[4-[2-(6-fluoro-5-methanesulfonylindol-1-ylmethyl)pyridin-5-yl]piperidin-1-yl]pyrimidine] | 52 | 
CC(C)OC(=O)N1CCC(c2cnc(Cn3ccc4cc(-n5cnnn5)cc(F)c43)c(F)c2)CC1 [Example 83, Isopropyl 4-[3-fluoro-2-[7-fluoro-5-(tetrazol-1-yl)indol-1-ylmethyl]pyridin-5-yl]piperidine-1-carboxylate] | 10.4 | excellent GPR119 agonist effect
C[C@H]1CC(c2ccc(Cn3ccc4cc(S(C)(=O)=O)ccc43)nc2)C[C@H](C)N1C(=O)OC(C)(C)C (stereo partly drawn) [Example 69, tert-Butyl (2S,6S)-2,6-dimethyl-4-[2-(5-methanesulfonylindol-1-ylmethyl)pyridin-5-yl]piperidine-1-carboxylate] | 17.5 | 
CC(C)(C)OC(=O)N1CCC(c2ccc(Cn3ccc4c(F)c(S(C)(=O)=O)ccc43)nc2)CC1 [Example 23, tert-Butyl 4-[2-(4-fluoro-5-methanesulfonylindol-1-ylmethyl)pyridin-5-yl]piperidine-1-carboxylate] | 51.3 | 
CC(C)(C)OC(=O)N1CCC(c2ccc(Cn3ccc4c(F)c(S(C)(=O)=O)c(F)cc43)nc2)CC1 [Example 57, tert-Butyl 4-[2-(4,6-difluoro-5-methanesulfonylindol-1-ylmethyl)pyridin-5-yl]piperidine-1-carboxylate] | 17.4 | 
CC1CN(C(=O)OC(C)(C)C)CC=C1c1ccc(Cn2ccc3c(F)c(S(C)(=O)=O)c(F)cc32)nc1 (centres unmarked) [Example 62, tert-Butyl 4-[2-(4,6-difluoro-5-methanesulfonylindol-1-ylmethyl)pyridin-5-yl]-3-methyl-3,6-dihydro-2H-pyridine-1-carboxylate] | 65.2 | 
CC(C)(C)OC(=O)N1CCC(c2ccc(CN3CCc4cc(S(C)(=O)=O)cc(F)c43)nc2)CC1 [Example 25, tert-Butyl 4-[2-(7-fluoro-5-methanesulfonylindolin-1-ylmethyl)pyridin-5-yl]piperidine-1-carboxylate] | 20.2 | 
Cc1cc(C2CCN(C(=O)OC(C)(C)C)CC2)cnc1Cn1ccc2cc(-n3cncn3)ccc21 [Example 58, tert-Butyl 4-[3-methyl-2-[5-(1,2,4-triazol-1-yl)indol-1-ylmethyl]pyridin-5-yl]piperidine-1-carboxylate] | 13.1 | 
CCC1CN(C(=O)OC(C)(C)C)CC=C1c1ccc(Cn2ccc3cc(S(C)(=O)=O)ccc32)nc1 (centres unmarked) [Example 73, tert-Butyl 3-ethyl-4-[2-(5-methanesulfonylindol-1-ylmethyl)pyridin-5-yl]-3,6-dihydro-2H-pyridine-1-carboxylate] | 32.4 | 
CC(C)(C)OC(=O)N1CC=C(c2ccc(Cn3ccc4cc(S(C)(=O)=O)ccc43)nc2)C(C)(C)C1 [Example 45, tert-Butyl 3,3-dimethyl-4-[2-(5-methanesulfonylindol-1-ylmethyl)pyridin-5-yl]-3,6-dihydro-2H-pyridine-1-carboxylate] | 186 | 
Cc1cc(C2CCN(C(=O)OC(C)C)CC2)cnc1Cn1ccc2cc(-n3cncn3)ccc21 [Example 59, Isopropyl 4-[3-methyl-2-[5-(1,2,4-triazol-1-yl)indol-1-ylmethyl]pyridin-5-yl]piperidine-1-carboxylate] | 104 | 

Continued, values first:

EC50 [nM] | GPR119 agonist effect (in words) (statement in words on Tables 10 to 13) | SMILES
9.5 |  | CC(C)(C)OC(=O)N1CCC(c2cnc(Cn3ccc4cc(S(C)(=O)=O)ccc43)c(Cl)c2)CC1 [Example 14, tert-Butyl 4-[3-chloro-2-(5-methanesulfonylindol-1-ylmethyl)pyridin-5-yl]piperidine-1-carboxylate]
41.1 |  | CC(C)(C)OC(=O)N1CCC(c2ccc(Cn3ccc4cc(S(C)(=O)=O)c(Cl)cc43)nc2)CC1 [Example 31, tert-Butyl 4-[2-(6-chloro-5-methanesulfonylindol-1-ylmethyl)pyridin-5-yl]piperidine-1-carboxylate]
39 |  | CC(C)(C)OC(=O)N1CCC(c2ccc(Cn3ccc4cc(S(C)(=O)=O)ncc43)nc2)CC1 [Example 29, tert-Butyl 4-[2-(5-methanesulfonyl-1H-pyrrolo[2,3-c]pyridin-1-ylmethyl)pyridin-5-yl]piperidine-1-carboxylate]
30.4 |  | CC(C)(C)OC(=O)N1CCC(c2ccc(Cn3ccc4cc(S(C)(=O)=O)cnc43)nc2)CC1 [Example 17, tert-Butyl 4-[2-(5-methanesulfonyl-1H-pyrrolo[2,3-b]pyridin-1-ylmethyl)pyridin-5-yl]piperidine-1-carboxylate]
22.9 |  | CC(C)(C)OC(=O)N1CCC(c2ccc(Cn3ccc4c(F)c(S(C)(=O)=O)cc(F)c43)nc2)CC1 [Example 42, tert-Butyl 4-[2-(4,7-difluoro-5-methanesulfonylindol-1-ylmethyl)pyridin-5-yl]piperidine-1-carboxylate]
31.6 |  | Cc1cc(C2CCN(C(=O)OC(C)(C)C)CC2)cnc1Cn1ccc2cc(S(C)(=O)=O)ccc21 [Example 5, tert-Butyl 4-[2-(5-methanesulfonylindol-1-ylmethyl)-3-methylpyridin-5-yl]piperidine-1-carboxylate]
13.9 |  | CC(C)(C)OC(=O)N1CCC(c2ccc(Cn3ccc4cc(S(C)(=O)=O)cc(Cl)c43)nc2)CC1 [Example 27, tert-Butyl 4-[2-(7-chloro-5-methanesulfonylindol-1-ylmethyl)pyridin-5-yl]piperidine-1-carboxylate]
21.4 |  | CC(C)(C)OC(=O)N1CCC(c2ccc(Cn3ccc4cc(S(C)(=O)=O)cc(F)c43)nc2)CC1 [Example 11, tert-Butyl 4-[2-(7-fluoro-5-methanesulfonylindol-1-ylmethyl)pyridin-5-yl]piperidine-1-carboxylate]
